Experiment [1] deals with T1, catalytic domain of human Bub1 (amino acids 704-1085) (Homo sapiens, UniProt O43683).
T1 construct: catalytic domain of human Bub1 (amino acids 704-1085); His6 (N); made in house; host or cells: Hi5 insect cells
Put plainly: Bub1 kinase assay (TR-FRET). The class given is biochemical. The settings on record: 10 μM ATP, 1 μM peptide substrate, median, read-out: Biological Assay 1: Bub1 kinase assay median IC50. From the text: Bub1-inhibitory activities of compounds described in the present invention were quantified using a time-resolved fluorescence energy transfer (TR-FRET) kinase assay which measures phosphorylation of the synthetic peptide Biotin-Ahx-VLLPKKSFAEPG (C-terminus in amide form), purchased from e.g. Biosyntan (Berlin, Germany) by the (recombinant) catalytic domain of human Bub1 (amino acids 704-1085), expressed in Hi5 insect cells with an N-terminal His6-tag and purified by affinity-(Ni-NTA) and size exclusion chromatography.
In a typical assay 11 different concentrations of each compound (0.1 nM, 0.33 nM, 1.1 nM, 3.8 nM, 13 nM, 44 nM, 0.15 μM, 0.51 μM, 1.7 μM, 5.9 μM and 20 μM) were tested in duplicate within the same microtiter plate. To this end, 100-fold concentrated compound solutions (in DMSO) were previously prepared by serial dilution (1:3.4) of 2 mM stocks in a clear low volume 384-well source microtiter plate (Greiner Bio-One, Frickenhausen, Germany), from which 50 nL of compounds were transferred into a black low volume test microtiter plate from the same supplier. Subsequently, 2 μL of Bub1 (the final concentration of Bub1 was adjusted depending on the activity of the enzyme lot in order to be within the linear dynamic range of the assay: typically ˜200 ng/mL were used) in aqueous assay buffer [50 mM Tris/HCl pH 7.5, 10 mM magnesium chloride (MgCl2), 200 mM potassium chloride (KCl), 1.0 mM dithiothreitol (DTT), 0.1 mM sodium ortho-vanadate, 1% (v/v) glycerol, 0.01% (w/v) bovine serum albumine (BSA), 0.005% (v/v) Trition X-100 (Sigma), 1× Complete EDTA-free protease inhibitor mixture (Roche)] were added to the compounds in the test plate and the mixture was incubated for 15 min at 22° C. to allow pre-equilibration of the putative enzyme-inhibitor complexes before the start of the kinase reaction, which was initiated by the addition of 3 μL 1.67-fold concentrated solution (in assay buffer) of adenosine-tri-phosphate (ATP, 10 μM final concentration) and peptide substrate (1 μM final concentration). The resulting mixture (5 μL final volume) was incubated at 22° C. during 60 min., and the reaction was stopped by the addition of 5 μL of an aqueous EDTA-solution (50 mM EDTA, in 100 mM HEPES pH 7.5 and 0.2% (w/v) bovine serum albumin) which also contained the TR-FRET detection reagents (0.2 μM streptavidin-XL665 [Cisbio Bioassays, Codolet, France] and 1 nM anti-phosho-Serine antibody [Merck Millipore, cat. #35-001] and 0.4 nM LANCE EU-W1024 labeled anti-mouse IgG antibody [Perkin-Elmer, product no. AD0077, alternatively a Terbium-cryptate-labeled anti-mouse IgG antibody from Cisbio Bioassays can be used]). The stopped reaction mixture was further incubated 1 h at 22° C. in order to allow the formation of complexes between peptides and detection reagents. Subsequently, the amount of product was evaluated by measurement of the resonance energy transfer from the Eu-chelate-antibody complex recognizing the Phosphoserine residue to the streptavidin-XL665 bound to the biotin moiety of the peptide. To this end, the fluorescence emissions at 620 nm and 665 nm after excitation at 330-350 nm were measured in a TR-FRET plate reader, e.g. a Rubystar or Pherastar (both from BMG Labtechnologies, Offenburg, Germany) or a Viewlux (Perkin-Elmer) and the ratio of the emissions (665 nm/622 nm) was taken as indicator for the amount of phosphorylated substrate. The data were normalised using two sets of (typically 32—) control wells for high—(=enzyme reaction without inhibitor=0% =Minimum inhibition) and low—(=all assay components without enzyme=100%=Maximum inhibition) Bub1 activity. IC50 values were calculated by fitting the normalized inhibition data to a 4-parameter logistic equation (Minimum, Maximum, IC50, Hill; Y=Max+(Min−Max)/(1+(X/IC50)Hill)).

For experiment [2], the system named is HeLa human cervical cancer cell line. Put plainly: Proliferation assay (crystal violet staining). The class given is cell-based. The conditions noted are these: 96 h, HeLa cells, 4 days incubation, median, read-out: Biological Assay 2: Proliferation assay (HeLa cell line) median IC50. The protocol: Cultivated tumor cells (cells were ordered from ATCC) were plated at a density of 3000 cells/well in a 96-well multititer plate in 200 μL of growth medium supplemented 10% fetal calf serum. After 24 hours, the cells of one plate (zero-point plate) were stained with crystal violet (see below), while the medium of the other plates was replaced by fresh culture medium (200 μL), to which the test substances were added in various concentrations (0 μM, as well as in the range of 0.001-10 μM; the final concentration of the solvent dimethyl sulfoxide was 0.5%). The cells were incubated for 4 days in the presence of test substances. Cell proliferation was determined by staining the cells with crystal violet: the cells were fixed by adding […] of an 11% glutaric aldehyde solution for 15 minutes at room temperature. After three washing cycles of the fixed cells with water, the plates were dried at room temperature. The cells were stained by adding 100 μL/measuring point of a 0.1% crystal violet solution (pH 3.0). After three washing cycles of the stained cells with water, the plates were dried at room temperature. The dye was dissolved by adding 100 μL/measuring point of a 10% acetic acid solution. Absorbtion was determined by photometry at a wavelength of 595 nm. The change of cell number, in percent, was calculated by normalization of the measured values to the absorbtion values of the zero-point plate(=0%) and the absorbtion of the untreated (0 μm) cells(=100%). The IC50 values were determined by means of a 4 parameter fit.

pIC50: −log10 of the molar value. Bounds are passed on as bounds.

T1 sequence (O43683 704-1085): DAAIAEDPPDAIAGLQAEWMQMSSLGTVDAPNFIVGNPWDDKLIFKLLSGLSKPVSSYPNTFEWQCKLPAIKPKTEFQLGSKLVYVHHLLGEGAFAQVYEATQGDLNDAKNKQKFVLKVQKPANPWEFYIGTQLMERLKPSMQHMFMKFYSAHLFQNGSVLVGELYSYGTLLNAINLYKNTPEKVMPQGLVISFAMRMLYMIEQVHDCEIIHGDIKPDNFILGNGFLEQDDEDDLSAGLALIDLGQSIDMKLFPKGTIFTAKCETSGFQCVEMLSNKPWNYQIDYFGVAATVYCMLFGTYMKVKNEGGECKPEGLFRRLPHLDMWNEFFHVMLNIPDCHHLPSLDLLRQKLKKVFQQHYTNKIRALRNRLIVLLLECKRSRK

Turning to `CCOc1cc(F)c(Cn2nc(-c3nccc(Nc4ccncn4)n3)c(C)c2C2CC2)c(F)c1` [Example 2-1-3, 2-[5-cyclopropyl-1-(4-ethoxy-2,6-difluorobenzyl)-4-methyl-1H-pyrazol-3-yl]-N-(pyrimidin-4-yl)pyrimidin-4-amine], the pIC50 in experiment [1] was 7.77; in experiment [2], under 5.00.

With `CCOc1cc(F)c(Cn2nc(-c3nccc(Nc4ccncn4)n3)c(Cl)c2C2CC2)c(F)c1` [Example 2-1-1, 2-[4-chloro-5-cyclopropyl-1-(4-ethoxy-2,6-difluorobenzyl)-1H-pyrazol-3-yl]-N-(pyrimidin-4-yl)pyrimidin-4-amine], the pIC50 is 8.30 in experiment [1] and under 5.00 in experiment [2].

As to `COc1cnc(-c2cc(OC)n(Cc3ccccc3F)n2)nc1Nc1ccncn1` [Example 2-1-7, 2-[1-(2-fluorobenzyl)-5-methoxy-1H-pyrazol-3-yl]-5-methoxy-N-(pyrimidin-4-yl)pyrimidin-4-amine], the pIC50 was 5.44 in experiment [1] and under 5.00 in experiment [2].

On to `CCOc1cc(F)c(Cn2nc(-c3ncc(OC)c(Nc4ccnnc4)n3)c(C)c2C2CC2)c(F)c1` [Example 2-1-4, N-{2-[5-cyclopropyl-1-(4-ethoxy-2,6-difluorobenzyl)-4-methyl-1H-pyrazol-3-yl]-5-methoxy-pyrimidin-4-yl}pyridazin-4-amine], for which the pIC50 in experiment [1] is 7.28; in experiment [2] it was under 5.00.

Consider `CCOc1cc(F)c(Cn2cc(Cl)c(-c3ncc(OC)c(Nc4ccncn4)n3)n2)c(F)c1` [Example 2-1-6, 2-[4-chloro-1-(4-ethoxy-2,6-difluorobenzyl)-1H-pyrazol-3-yl]-5-methoxy-N-(pyrimidin-4-yl)pyrimidin-4-amine], for which the pIC50 in experiment [1] was 7.00; in experiment [2] it was under 5.00.

With `CCOc1cc(F)c(Cn2cc(C)c(-c3ncc(OC)c(Nc4ccncn4)n3)n2)c(F)c1` [Example 2-1-5, 2-[1-(4-ethoxy-2,6-difluorobenzyl)-4-methyl-1H-pyrazol-3-yl]-5-methoxy-N-(pyrimidin-4-yl)pyrimidin-4-amine], the pIC50 was 7.07 in experiment [1] and under 5.00 in experiment [2].

Take `CCOc1cc(F)c(Cn2nc(-c3ncc(OC)c(Nc4ccncn4)n3)c(C)c2C2CC2)c(F)c1` [Example 2-1-2, 2-[5-cyclopropyl-1-(4-ethoxy-2,6-difluorobenzyl)-4-methyl-1H-pyrazol-3-yl]-5-methoxy-N-(pyrimidin-4-yl)pyrimidin-4-amine]: the pIC50 was 7.80 in experiment [1] and 5.46 in experiment [2].
